{
  "source": "patent US10335372B2",
  "about": "“Compositions with modified nucleases targeted to viral nucleic acids and methods of use for prevention and treatment of viral diseases” (priority 2004, dated 2019)",
  "key": {"HIV-1 (HXB2)": {"system": "HIV-1 (HXB2)", "experiment": "Plaque reduction assay in CD4+ HeLa cells of serially passaged virus", "type": "cell-based"}, "HIV-1": {"system": "HIV-1", "experiment": "HIV-1 infectivity on serial passage in MT-4 cells with drug", "type": "cell-based"}, "avian adenovirus": {"system": "avian adenovirus", "design": "species or system chickens", "conditions": "in vivo"}, "[1]": {"system": "herpes virus simplex I (HSV-I)", "experiment": "Effect of tri-peptide P3 and P-PEG-R8 on replication of HSV-1 in vitro", "type": "cell-based", "conditions": "for HSV Titer: single values"}, "dsDNA": {"system": "dsDNA", "experiment": "Hydrolysis of dsDNA in human serum by native, multi-charged and actin-resistant DNase I variants"}, "cytomegalovirus": {"system": "cytomegalovirus", "experiment": "Antiviral activity of modified DNase I against cytomegalovirus in cell culture", "conditions": "500 UA/ml, 48 h at 37° C.; for Virus Titer: single values"}},
  "note": "“And” between values parts separate entries of the source, which are not always exact repeats. Equal entries are not always repeated. Where no end group is shown, it is not given here. [ ]: non-standard residue; d: D form.",
  "data": [
    {"molecule": "Cc1cn([C@H]2C[C@H](N=[N+]=[N-])[C@@H](CO)O2)c(=O)[nH]c1=O", "note": "[AZT]", "values": [
      {"measurement": "shift in sensitivity", "setting": "HIV-1 (HXB2); sixth passage", "result": "> 1000", "unit": "fold"},
      {"measurement": "IC50", "setting": "HIV-1 (HXB2); virus of fourth passage in drug-treated MT-4 cells", "result": "> 50", "unit": "µM"},
      {"measurement": "IC50", "setting": "HIV-1 (HXB2); virus of sixth passage", "result": "> 250", "unit": "µM"},
      {"measurement": "HIV-1 infectivity", "setting": "HIV-1; passage 0", "result": 2.8, "unit": "log10TCID50/ml"},
      {"measurement": "HIV-1 infectivity", "setting": "HIV-1; passage 1", "result": 2.6, "unit": "log10TCID50/ml"},
      {"measurement": "HIV-1 infectivity", "setting": "HIV-1; passage 2", "result": 3.8, "unit": "log10TCID50/ml"},
      {"measurement": "HIV-1 infectivity", "setting": "HIV-1; passage 5", "result": 4.7, "unit": "log10TCID50/ml"},
      {"measurement": "HIV-1 infectivity", "setting": "HIV-1; passage 15", "result": 5.9, "unit": "log10TCID50/ml"}
    ]},
    {"molecule": "[dS]-His", "values": [
      {"measurement": "chickens that survive", "setting": "avian adenovirus", "result": 18}
    ]},
    {"molecule": "[dS]-His-[dD] [P3]", "values": [
      {"measurement": "Average Titer", "setting": "[1]; 10 UA/ml", "result": 5.7, "unit": "logTCD50/ml"},
      {"measurement": "HSV Titer", "setting": "[1]; 10 UA/ml", "result": "5.8 logTCD50/ml and 5.6 logTCD50/ml and 5.7 logTCD50/ml"},
      {"measurement": "Average Titer", "setting": "[1]; 50 UA/ml", "result": 5.4, "unit": "logTCD50/ml"},
      {"measurement": "HSV Titer", "setting": "[1]; 50 UA/ml", "result": "5.5 logTCD50/ml and 5.4 logTCD50/ml and 5.3 logTCD50/ml"},
      {"measurement": "Average Titer", "setting": "[1]; 100 UA/ml", "result": 5.1, "unit": "logTCD50/ml"},
      {"measurement": "HSV Titer", "setting": "[1]; 100 UA/ml", "result": "5.2 logTCD50/ml and 5.3 logTCD50/ml and 5.1 logTCD50/ml"},
      {"measurement": "Average Titer", "setting": "[1]; 500 UA/ml", "result": 4.8, "unit": "logTCD50/ml"},
      {"measurement": "HSV Titer", "setting": "[1]; 500 UA/ml", "result": "4.8 logTCD50/ml and 4.9 logTCD50/ml and 4.7 logTCD50/ml"},
      {"measurement": "chickens that survive", "setting": "avian adenovirus", "result": 19}
    ]},
    {"molecule": "arDNase (+1): actin-resistant human DNase I with substitution A114R (protein, UniProt P24855 23-282, looked up, variant A114R) Deoxyribonuclease-1: LKIAAFNIQTFGETKMSNATLVSYIVQILSRYDIALVQEVRDSHLTAVGKLLDNLNQDAPDTYHYVVSEPLGRNSYKERYLFVYRPDQVSAVDSYYYDDGCEPCGNDTFNREPRIVRFFSRFTEVREFAIVPLHAAPGDAVAEIDALYDVYLDVQEKWGLEDVMLMGDFNAGCSYVRPSQWSSIRLWTSPTFQWLIPDSADTTATPTHCAYDRIVVAGMLLRGAVVPDSALPFNFQAAYGLSDQLAQAISDHYPVEVMLK", "values": [
      {"measurement": "Average T50 (min) 50% DNA hydrolysis", "setting": "dsDNA", "result": 3, "unit": "min"},
      {"measurement": "Time T50 (min) 50% DNA hydrolysis", "setting": "dsDNA; single values of triplicate", "result": "2 min and 3 min and 4 min"}
    ]},
    {"molecule": "PEG-DNase: human DNase I conjugated with PEG (Example 14) (conjugate, UniProt P24855 23-282, looked up, PEG) Deoxyribonuclease-1: LKIAAFNIQTFGETKMSNATLVSYIVQILSRYDIALVQEVRDSHLTAVGKLLDNLNQDAPDTYHYVVSEPLGRNSYKERYLFVYRPDQVSAVDSYYYDDGCEPCGNDTFNREPAIVRFFSRFTEVREFAIVPLHAAPGDAVAEIDALYDVYLDVQEKWGLEDVMLMGDFNAGCSYVRPSQWSSIRLWTSPTFQWLIPDSADTTATPTHCAYDRIVVAGMLLRGAVVPDSALPFNFQAAYGLSDQLAQAISDHYPVEVMLK", "values": [
      {"measurement": "Average Titer", "setting": "cytomegalovirus", "result": 3.4, "unit": "logTCD50/0.1 ml"},
      {"measurement": "Virus Titer", "setting": "cytomegalovirus", "result": "3.2 logTCD50/0.1 ml and 3.4 logTCD50/0.1 ml and 3.5 logTCD50/0.1 ml"}
    ]},
    {"molecule": "(PNA)2-PEG-DNase: 18-mer bis-PNA complementary to viral DNA conjugated with forked 2×20 kDa PEG and human DNase I (conjugate, UniProt P24855 23-282, looked up, forked 2x20 kDa PEG, bis-PNA) Deoxyribonuclease-1: LKIAAFNIQTFGETKMSNATLVSYIVQILSRYDIALVQEVRDSHLTAVGKLLDNLNQDAPDTYHYVVSEPLGRNSYKERYLFVYRPDQVSAVDSYYYDDGCEPCGNDTFNREPAIVRFFSRFTEVREFAIVPLHAAPGDAVAEIDALYDVYLDVQEKWGLEDVMLMGDFNAGCSYVRPSQWSSIRLWTSPTFQWLIPDSADTTATPTHCAYDRIVVAGMLLRGAVVPDSALPFNFQAAYGLSDQLAQAISDHYPVEVMLK", "values": [
      {"measurement": "Average Titer", "setting": "cytomegalovirus", "result": 0.3, "unit": "logTCD50/0.1 ml"},
      {"measurement": "Virus Titer", "setting": "cytomegalovirus", "result": "0.2 logTCD50/0.1 ml and 0.3 logTCD50/0.1 ml and 0.4 logTCD50/0.1 ml"}
    ]}
  ]
}
